Results from US20080096807A1, “Cyclic vasoactive intestinal peptide receptor-2 agonists” (priority 2006, published 2008).
Bridge positions count the residues as written; N and C are the ends. Square brackets hold non-standard residues; d marks the D form. Peptide text beside a SMILES is read from it. ξ: configuration not given here. Thr(3ξ) = CC(O)[C@H](N)C(=O)O; Nle = CCCC[C@H](N)C(=O)O

Key:
[1] = biological target: T1, VPAC2 receptor (Homo sapiens, UniProt P41587); experiment: Sup-T1 cAMP agonist assay; type: cell-based; conditions: human T-lymphoid cell line Sup-T1 expressing VPAC2 receptor; cAMP EIA; 5 min at room temperature; read-out: Sup-T1 cAMP EC50
T1 construct: The human T-lymphoid cell line Sup-Ti, which expresses the VPAC2 receptor; host or cells: Sup-T1 (Sup-Ti [sic]) human T-lymphoid cell line
T1 sequence (P41587 24-438): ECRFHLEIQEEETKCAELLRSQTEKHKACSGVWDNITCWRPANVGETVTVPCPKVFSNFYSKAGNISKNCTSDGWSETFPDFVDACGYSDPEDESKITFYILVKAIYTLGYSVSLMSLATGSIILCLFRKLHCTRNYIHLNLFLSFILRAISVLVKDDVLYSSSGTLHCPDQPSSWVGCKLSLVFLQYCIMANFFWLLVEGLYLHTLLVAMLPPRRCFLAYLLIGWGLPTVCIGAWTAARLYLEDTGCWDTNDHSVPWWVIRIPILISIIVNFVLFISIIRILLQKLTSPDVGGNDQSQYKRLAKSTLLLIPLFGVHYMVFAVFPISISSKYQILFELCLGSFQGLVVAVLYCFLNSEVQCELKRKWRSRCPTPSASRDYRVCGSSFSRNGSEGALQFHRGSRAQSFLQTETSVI
Method: The human T-lymphoid cell line Sup-Ti, which expresses the VPAC2 receptor, was obtained from the American Type Culture Collection (ATCC, CRL-1942) and maintained in growth medium at densities between 0.2 and 2×10^6 cells/ml in a 37° C. CO2 incubator. The growth medium was RPMI 1640 (Invitrogen) supplemented with 25 mM HEPES buffer and 10% fetal bovine serum (Gemini Bioproducts).
To evaluate VPAC2 agonist compound activity, cells in log-phase growth were washed once with growth medium at room temperature and plated into 96-well plates at a density of 4×10^4 cells per well in 150 uL of growth medium. Fifty uL of the compounds to be tested, prepared at appropriate concentrations in growth medium, were then added to designated wells. After 5 min at room temperature, the cells were lysed by adding 25 uL of lysis reagent 1A (cAMP Biotrak EIA system, Amersham Biosciences, RPN225) to each well. The 96-well plates were kept at room temperature for 10 min with shaking and then stored at 4° C. until analysis for cAMP (within 2 hr).
Cyclic AMP levels were determined in 100 uL of each lysate using the cAMP Biotrak Enzymeimmunoassay (EIA) kit according to the manufacture's instructions (Amersham Biosciences, RPN225). The activity of each VPAC2 agonist compound (EC50 value) was estimated by fitting the 7-concentration dose response data to a sigmoidal dose-response equation provided by the GraphPad Prism program (GraphPad Software, Inc.).

[2] = system: LPS-induced lung inflammation in male C57BL/6 mice; experiment: LPS-induced lung inflammation in male C57BL/6 mice (BAL neutrophilia); type: in vivo; conditions: BAL fluid neutrophilia
Method: C57bl/6 mice are pretreated with vehicle or drug prior to an aerosol expose to lipopolysacchride (LPS, 500 μg/ml in sterile saline) for 15-30 minutes. The aerosol is generated by a Pari Ultra neb jet nebulizer, the outlet of which is connected to a small clear plastic chamber [H×W×D, 10.7×25.7×11 cm (4×10×4.5 in)] containing the animals. Bronchoalveolar lavage (BAL) is performed 24 hr later to determine the intensity of cell inflammation. BAL procedure is performed as described below.
Mice are pretreated with vehicle or drug prior to an intranasal administration of lipopolysacchride (0.05-0.3 mg/kg in sterile saline; 50 μl total volume, 25 μl/nostril). Intranasal administration is performed by presenting small droplets of the dosing solution at the nostril using a 25-50 μl eppendorff pipet. BAL is performed 3 to 24 h post LPS challenged as described above to determine the intensity of cell inflammation.
24 h following LPS exposure, animals are anesthetized with pentobarbital (80-100 mg/kg, i.p.), ketamine/xyzaline (80-120 mg/kg/2-4 mg/kg, i.p.) or urethane (1.5-2.4 g/kg, i.p.); and through a small midline neck incision (15-20 mm), the trachea is exposed and cannulated with 20-gauge tubing adapter. Lungs are lavaged with 2×1 ml sterile Hank's balanced salt solution without Ca++ and Mg++(HBSS). Lavage fluid is recovered after 30 sec by gentle aspiration and pooled for each animal. Samples are then centrifuged at 2000 rpm for 10 minutes at 5° C. Supernatant is aspirated, and red blood cells are lysed from the resulting pellet with 0.5 ml distilled water for 30 sec before restoring osmolarity to the remaining cells by the addition of 5 ml of HBSS. Samples are recentrifuged at 2000 rpm for 10 minutes at 5° C. and supernatant aspirated. The resulting pellet is resuspended in 1 ml of HBSS. Total cell number is determined by Trypan Blue (Sigma Chemical, St. Louis, Mo.) exclusion from an aliquot of cell suspension using a hemocytometer or coulter counter. For differential cell counts, an aliquot of the cell suspension is centrifuged in a Cytospin (5 min, 1300 rpm; Shandon Southern Instruments, Sewickley, Pa.) and the slides fixed and stained with a modified Wright's stain (Hema 3 stain kit, Fisher Scientific). Standard morphological criteria is used in classifying at least 300 cells under light microscopy. Data in Table 3 is expressed as BAL cells×10^4/animal for neutrophils and total cells, or percent inhibition of the LPS induced BAL fluid neutrophilia response.

[3] = biological target: T2, human neutrophil elastase (Homo sapiens, UniProt P08246); experiment: Peptide stability to neutrophil elastase (RP HPLC ESI MS); conditions: halftime with human neutrophil elastase 1 to 2 μg/mL in PBS, ambient temperature, normalized to halftime of the reference standard
T2 sequence (P08246 30-247 limits assumed): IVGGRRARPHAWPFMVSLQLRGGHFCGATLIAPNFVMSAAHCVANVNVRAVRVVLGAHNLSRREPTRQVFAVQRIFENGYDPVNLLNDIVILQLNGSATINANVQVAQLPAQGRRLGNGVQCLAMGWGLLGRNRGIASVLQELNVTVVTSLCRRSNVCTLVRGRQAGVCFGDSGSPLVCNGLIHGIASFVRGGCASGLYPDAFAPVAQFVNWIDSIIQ

| EC50 [1] | Relative elastase stability [3] | SMILES | Inhibition of LPS-induced neutrophilia ([2]; Dose 0.01%) | Inhibition of LPS-induced neutrophilia ([2]; Dose 0.1%) |
| --- | --- | --- | --- | --- |
| 16.8 nM | 2.4 | CCCC[C@H](NC(=O)[C@H](CCC(N)=O)NC(=O)[C@H](CCCCN)NC(=O)[C@H](CCCNC(=N)N)NC(=O)[C@H](CC(C)C)NC(=O)[C@H](CCCCN)NC(=O)[C@@H](NC(=O)[C@H](Cc1ccc(O)cc1)NC(=O)[C@H](CC(N)=O)NC(=O)[C@H](CCC(=O)O)NC(=O)[C@@H](NC(=O)[C@H](Cc1ccccc1)NC(=O)[C@H](CO)NC(=O)[C@H](C)NC(=O)[C@H](CC(=O)O)NC(=O)[C@H](CO)NC(=O)[C@H](Cc1c[nH]cn1)NC(C)=O)C(C)O)C(C)O)C(=O)N[C@@H](C)C(=O)N[C@@H](C)C(=O)N[C@@H](CCCCN)C(=O)N[C@H]1CCCCNC(=O)C[C@@H](C(=O)N[C@@H](CC(C)C)C(=O)N[C@@H](CC(C)C)C(=O)N[C@@H](CC(N)=O)C(=O)NCC(=O)NCC(=O)N[C@H](C(N)=O)C(C)O)NC(=O)[C@H](CC(N)=O)NC(=O)[C@H](CC(C)C)NC(=O)[C@H](Cc2ccc(O)cc2)NC1=O (stereo partly drawn) [Example 11] (Ac-HSDASF[Thr(3ξ)]ENY[Thr(3ξ)]KLRKQ[Nle]AAKKYLNDLLNGG[Thr(3ξ)]-NH2; lactam 21-25) | ++ (++ >30%) | – |
| 11.4 nM | 3.5 | CCCC[C@H](NC(=O)[C@H](CCC(N)=O)NC(=O)[C@H](CCCCN)NC(=O)[C@H](CCCNC(=N)N)NC(=O)[C@H](CC(C)C)NC(=O)[C@H](CCCCN)NC(=O)[C@@H](NC(=O)[C@H](Cc1ccc(O)cc1)NC(=O)[C@H](CC(N)=O)NC(=O)[C@H](CCC(=O)O)NC(=O)[C@@H](NC(=O)[C@H](Cc1ccccc1)NC(=O)[C@H](CO)NC(=O)[C@H](C)NC(=O)[C@H](CC(=O)O)NC(=O)[C@H](CO)NC(=O)[C@H](Cc1c[nH]cn1)NC(C)=O)C(C)O)C(C)O)C(=O)N[C@@H](C)C(=O)N[C@@H](C)C(=O)N[C@@H](CCCCN)C(=O)N[C@H]1CCCCNC(=O)C[C@@H](C(=O)N[C@@H](CC(C)C)C(=O)N[C@@H](CC(C)C)C(=O)N[C@@H](CCCCN)C(=O)NCC(=O)NCC(=O)N[C@H](C(N)=O)C(C)O)NC(=O)[C@H](CC(N)=O)NC(=O)[C@H](CC(C)C)NC(=O)[C@H](Cc2ccc(O)cc2)NC1=O (stereo partly drawn) [Example 8] (Ac-HSDASF[Thr(3ξ)]ENY[Thr(3ξ)]KLRKQ[Nle]AAKKYLNDLLKGG[Thr(3ξ)]-NH2; lactam 21-25) | – | ++ (++ >30%) |
| 23.3 nM | 4.6 | CCCC[C@H](NC(=O)[C@H](CCCNC(=N)N)NC(=O)[C@H](CCCCN)NC(=O)[C@H](CCCNC(=N)N)NC(=O)[C@H](CC(C)C)NC(=O)[C@H](CCCCN)NC(=O)[C@@H](NC(=O)[C@H](Cc1ccc(O)cc1)NC(=O)[C@H](CC(N)=O)NC(=O)[C@H](CCC(=O)O)NC(=O)[C@@H](NC(=O)[C@H](Cc1ccccc1)NC(=O)[C@H](CO)NC(=O)[C@H](C)NC(=O)[C@H](CC(=O)O)NC(=O)[C@H](C)NC(=O)[C@H](Cc1c[nH]cn1)NC(C)=O)C(C)O)C(C)O)C(=O)N[C@@H](CCC(=O)O)C(=O)N[C@@H](C)C(=O)N[C@@H](CCCCN)C(=O)N[C@H]1CCCCNC(=O)C[C@@H](C(=O)N[C@@H](CC(C)C)C(=O)N[C@@H](CCCCN)C(=O)N[C@@H](CCCCN)C(=O)NCC(=O)NCC(=O)N[C@H](C(N)=O)C(C)O)NC(=O)[C@H](CC(N)=O)NC(=O)[C@H](CC(C)C)NC(=O)[C@H](Cc2ccc(O)cc2)NC1=O (stereo partly drawn) [Example 17] (Ac-HADASF[Thr(3ξ)]ENY[Thr(3ξ)]KLRKR[Nle]EAKKYLNDLKKGG[Thr(3ξ)]-NH2; lactam 21-25) | + (+ 10-30%) | – |
